Here are results for nine compounds from patent publication US5480902A, “Thienylpyrrole fungicidal agents” (American Cyanamid Company, priority 1993, dated 1996).

The subject of the first assay is Pseudocercosporella herpotrichoides. The experiment in a line: In vitro fungicidal activity, growth inhibition of ground fungal mycelia (PSDCHE). The class given is cell-based. The conditions noted are these: Oculimacula yallundae, 3-4 days at 21° C., averaged when more than one test, read-out: Growth inhibition rating, PSDCHE (converted). As for the experimental part: (§1) Test compounds are dissolved or suspended in acetone and dispersed into cell well plates containing a suspension of ground fungal mycelia in a nutrient broth. Assay plates are incubated for 3-4 days at 21° C. Growth inhibition is measured visually and is rated using the following scale:
(§2) Assay fungi include the plant pathogens, Pythium ultimum (Pythul); Rhizoctonia solani (Rhizso); Fusarium oxysporum f. sp. cucumerinum (Fusoxc); and Pseudocercosporella herpotrichoides (Psdche).
(§3) When more than one test is run, the data are averaged.
`N#Cc1cc(C(F)(F)F)[nH]c1-c1ccco1` [Compound 11, 2-(2-Furyl)-5-(trifluoromethyl)pyrrole-3-carbonitrile]: the inhibition at 25 ppm is 0%.
As to `N#Cc1cc(C(F)(F)F)[nH]c1-c1ccc(Br)s1` [Compound 15, 2-(5-Bromo-2-thienyl)-5-(trifluoromethyl)pyrrole-3-carbonitrile], the inhibition at 25 ppm was 0%.
On the same count and under the same terms, then `N#Cc1cc(C(F)(F)F)[nH]c1-c1ccc(Cl)s1` [Compound 16, 2-(5-Chloro-2-thienyl)-5-(trifluoromethyl)pyrrole-3-carbonitrile], with 0%.
`N#Cc1c(-c2ccc(Cl)s2)[nH]c(C(F)(F)F)c1Br` [Compound 17, 4-Bromo-2-(5-chloro-2-thienyl)-5-(trifluoromethyl)pyrrole-3-carbonitrile]: the inhibition at 25 ppm was 0%.
`CCOCn1c(-c2ccc(Cl)s2)c(C#N)c(Br)c1C(F)(F)F` [Compound 18, 4-Bromo-2-(5-chloro-2-thienyl)-1-(ethoxymethyl)-5-(trifluoromethyl)pyrrole-3-carbonitrile]: the inhibition at 25 ppm was 0%.
On the same count and under the same terms, then `N#Cc1c(-c2ccc(Br)o2)[nH]c(C(F)(F)F)c1Br` [Compound 19, 4-Bromo-2-(5-bromo-2-furyl)-5-(trifluoromethyl)pyrrole-3-carbonitrile], with 0%; and `N#Cc1cc(C(F)(F)F)[nH]c1-c1cc(Br)cs1` [Compound 20, 2-(4-Bromo-2-thienyl)-5-(trifluoromethyl)pyrrole-3-carbonitrile], with 0%.
The same measure, in the same setting: with `N#Cc1c(-c2cc(Br)c(Br)s2)[nH]c(C(F)(F)F)c1Br` [Compound 21, 4-Bromo-2-(4,5-dibromo-2-thienyl)-5-(trifluoromethyl)pyrrole-3-carbonitrile] the figure was 0%; with `CCOCn1c(-c2ccc(Br)o2)c(C#N)c(Br)c1C(F)(F)F` [Compound 22, 4-Bromo-2-(5-bromo-2-furyl)-1-(ethoxymethyl)-5-(trifluoromethyl)pyrrole-3-carbonitrile], 0%.

Another assay concerns Plasmopara viticola. The experiment in a line: In vivo fungicidal activity on host plants, Grape Downy Mildew (GDM). The conditions noted are these: 200 ppm; sprayed on host plants before inoculation.
As to `N#Cc1cc(C(F)(F)F)[nH]c1-c1ccco1` [Compound 11, 2-(2-Furyl)-5-(trifluoromethyl)pyrrole-3-carbonitrile], the “Disease control rating, GDM” value is 0 (0).

Another assay has as its system Botrytis cinerea. Briefly: In vivo fungicidal activity on host plants, Pepper Botrytis (PB). The conditions noted are these: 200 ppm; sprayed on host plants before inoculation.
For `N#Cc1cc(C(F)(F)F)[nH]c1-c1ccco1` [Compound 11, 2-(2-Furyl)-5-(trifluoromethyl)pyrrole-3-carbonitrile], the “Disease control rating, PB” value is listed as 0 (0).

In the next assay the test system is Pythium ultimum. Briefly: In vitro fungicidal activity, growth inhibition of ground fungal mycelia (PYTHUL). The assay is classed as cell-based. Particulars: Globisporangium ultimum, 3-4 days at 21° C., averaged when more than one test, read-out: Growth inhibition rating, PYTHUL (converted). The protocol:
as §1, §2, §3
As for `N#Cc1cc(C(F)(F)F)[nH]c1-c1ccco1` [Compound 11, 2-(2-Furyl)-5-(trifluoromethyl)pyrrole-3-carbonitrile], the inhibition at 25 ppm was 90 to 99%.
Turning to `N#Cc1cc(C(F)(F)F)[nH]c1-c1ccc(Br)s1` [Compound 15, 2-(5-Bromo-2-thienyl)-5-(trifluoromethyl)pyrrole-3-carbonitrile], the inhibition at 25 ppm was 0%.
Still for that read-out and setting: with `N#Cc1cc(C(F)(F)F)[nH]c1-c1ccc(Cl)s1` [Compound 16, 2-(5-Chloro-2-thienyl)-5-(trifluoromethyl)pyrrole-3-carbonitrile] the figure was 0%; with `N#Cc1c(-c2ccc(Cl)s2)[nH]c(C(F)(F)F)c1Br` [Compound 17, 4-Bromo-2-(5-chloro-2-thienyl)-5-(trifluoromethyl)pyrrole-3-carbonitrile], 30 to 59%.
The same measure, in the same setting: then `CCOCn1c(-c2ccc(Cl)s2)c(C#N)c(Br)c1C(F)(F)F` [Compound 18, 4-Bromo-2-(5-chloro-2-thienyl)-1-(ethoxymethyl)-5-(trifluoromethyl)pyrrole-3-carbonitrile], with 0%.
As for `N#Cc1c(-c2ccc(Br)o2)[nH]c(C(F)(F)F)c1Br` [Compound 19, 4-Bromo-2-(5-bromo-2-furyl)-5-(trifluoromethyl)pyrrole-3-carbonitrile], the inhibition at 25 ppm is 0%.
On the same count and under the same terms, with `N#Cc1cc(C(F)(F)F)[nH]c1-c1cc(Br)cs1` [Compound 20, 2-(4-Bromo-2-thienyl)-5-(trifluoromethyl)pyrrole-3-carbonitrile] the figure was 0%; with `N#Cc1c(-c2cc(Br)c(Br)s2)[nH]c(C(F)(F)F)c1Br` [Compound 21, 4-Bromo-2-(4,5-dibromo-2-thienyl)-5-(trifluoromethyl)pyrrole-3-carbonitrile], 0%; with `CCOCn1c(-c2ccc(Br)o2)c(C#N)c(Br)c1C(F)(F)F` [Compound 22, 4-Bromo-2-(5-bromo-2-furyl)-1-(ethoxymethyl)-5-(trifluoromethyl)pyrrole-3-carbonitrile], 0%.

The test system of the next assay is Rhizoctonia solani. The experiment in a line: In vitro fungicidal activity, growth inhibition of ground fungal mycelia (RHIZSO). The class given is cell-based. The conditions noted are these: 3-4 days at 21° C., averaged when more than one test, read-out: Growth inhibition rating, RHIZSO. The protocol: as §1, §2, §3
For the compound `N#Cc1cc(C(F)(F)F)[nH]c1-c1ccc(Br)s1` [Compound 15, 2-(5-Bromo-2-thienyl)-5-(trifluoromethyl)pyrrole-3-carbonitrile], the inhibition at 25 ppm is 60 to 89%.
As to `N#Cc1cc(C(F)(F)F)[nH]c1-c1ccc(Cl)s1` [Compound 16, 2-(5-Chloro-2-thienyl)-5-(trifluoromethyl)pyrrole-3-carbonitrile], the inhibition at 25 ppm lay within 60 to 89%.
Still for that read-out and setting: with `N#Cc1c(-c2ccc(Cl)s2)[nH]c(C(F)(F)F)c1Br` [Compound 17, 4-Bromo-2-(5-chloro-2-thienyl)-5-(trifluoromethyl)pyrrole-3-carbonitrile] the figure was 60 to 89%.
Consider `CCOCn1c(-c2ccc(Cl)s2)c(C#N)c(Br)c1C(F)(F)F` [Compound 18, 4-Bromo-2-(5-chloro-2-thienyl)-1-(ethoxymethyl)-5-(trifluoromethyl)pyrrole-3-carbonitrile], for which the inhibition at 25 ppm lay within 30 to 59%.
The same measure, in the same setting: with `N#Cc1c(-c2ccc(Br)o2)[nH]c(C(F)(F)F)c1Br` [Compound 19, 4-Bromo-2-(5-bromo-2-furyl)-5-(trifluoromethyl)pyrrole-3-carbonitrile] the figure was 0%.
Same read-out and setting: with `N#Cc1cc(C(F)(F)F)[nH]c1-c1cc(Br)cs1` [Compound 20, 2-(4-Bromo-2-thienyl)-5-(trifluoromethyl)pyrrole-3-carbonitrile] the figure was 0%; with `N#Cc1c(-c2cc(Br)c(Br)s2)[nH]c(C(F)(F)F)c1Br` [Compound 21, 4-Bromo-2-(4,5-dibromo-2-thienyl)-5-(trifluoromethyl)pyrrole-3-carbonitrile], 0%.
Take `CCOCn1c(-c2ccc(Br)o2)c(C#N)c(Br)c1C(F)(F)F` [Compound 22, 4-Bromo-2-(5-bromo-2-furyl)-1-(ethoxymethyl)-5-(trifluoromethyl)pyrrole-3-carbonitrile]: the inhibition at 25 ppm turned out to be 0%.

The test system of the next assay is Cercospora beticola. The experiment in a line: In vivo fungicidal activity on host plants, Sugar Beet Cercospora (SBC). Note: ranges in brackets are in %. Particulars: 200 ppm; sprayed on host plants before inoculation.
Turning to `N#Cc1cc(C(F)(F)F)[nH]c1-c1ccco1` [Compound 11, 2-(2-Furyl)-5-(trifluoromethyl)pyrrole-3-carbonitrile], the “Disease control rating, SBC” value is 0 (0).

In the next assay the test system is Venturia inaegualis. Briefly: In vivo fungicidal activity on host plants, Apple Scab (AS). Particulars: 200 ppm; sprayed on host plants before inoculation.
Regarding `N#Cc1cc(C(F)(F)F)[nH]c1-c1ccco1` [Compound 11, 2-(2-Furyl)-5-(trifluoromethyl)pyrrole-3-carbonitrile], the “Disease control rating, AS” value is 0 (0).

For another assay, the system named is Pyricularia oryzae.
Experiment: not given
The assay is classed as in vivo. The conditions noted are these: 200 ppm; sprayed on host plants before inoculation.
With `N#Cc1cc(C(F)(F)F)[nH]c1-c1ccco1` [Compound 11, 2-(2-Furyl)-5-(trifluoromethyl)pyrrole-3-carbonitrile], the “Disease control rating, RB” value was 0 (0).

Another assay relates to Fusarium oxysporum f. sp. cucumerinum. Briefly: In vitro fungicidal activity, growth inhibition of ground fungal mycelia (FUSOXC). The assay is classed as cell-based. Particulars: 25 ppm, 3-4 days at 21° C., averaged when more than one test, read-out: Growth inhibition rating, FUSOXC. As for the experimental part: as §1, §2, §3
With `N#Cc1cc(C(F)(F)F)[nH]c1-c1ccco1` [Compound 11, 2-(2-Furyl)-5-(trifluoromethyl)pyrrole-3-carbonitrile], the inhibition at 25 ppm is 0%.
Still for that read-out and setting: then `N#Cc1cc(C(F)(F)F)[nH]c1-c1ccc(Br)s1` [Compound 15, 2-(5-Bromo-2-thienyl)-5-(trifluoromethyl)pyrrole-3-carbonitrile], with 0%; and `N#Cc1cc(C(F)(F)F)[nH]c1-c1ccc(Cl)s1` [Compound 16, 2-(5-Chloro-2-thienyl)-5-(trifluoromethyl)pyrrole-3-carbonitrile], with 0%.
`N#Cc1c(-c2ccc(Cl)s2)[nH]c(C(F)(F)F)c1Br` [Compound 17, 4-Bromo-2-(5-chloro-2-thienyl)-5-(trifluoromethyl)pyrrole-3-carbonitrile]: the inhibition at 25 ppm is 0%.
For the compound `CCOCn1c(-c2ccc(Cl)s2)c(C#N)c(Br)c1C(F)(F)F` [Compound 18, 4-Bromo-2-(5-chloro-2-thienyl)-1-(ethoxymethyl)-5-(trifluoromethyl)pyrrole-3-carbonitrile], the inhibition at 25 ppm was found to be 0%.
Same read-out and setting: with `N#Cc1c(-c2ccc(Br)o2)[nH]c(C(F)(F)F)c1Br` [Compound 19, 4-Bromo-2-(5-bromo-2-furyl)-5-(trifluoromethyl)pyrrole-3-carbonitrile] the figure was 0%.
Regarding `N#Cc1cc(C(F)(F)F)[nH]c1-c1cc(Br)cs1` [Compound 20, 2-(4-Bromo-2-thienyl)-5-(trifluoromethyl)pyrrole-3-carbonitrile], the inhibition at 25 ppm turned out to be 0%.
Still for that read-out and setting: with `N#Cc1c(-c2cc(Br)c(Br)s2)[nH]c(C(F)(F)F)c1Br` [Compound 21, 4-Bromo-2-(4,5-dibromo-2-thienyl)-5-(trifluoromethyl)pyrrole-3-carbonitrile] the figure was 0%; with `CCOCn1c(-c2ccc(Br)o2)c(C#N)c(Br)c1C(F)(F)F` [Compound 22, 4-Bromo-2-(5-bromo-2-furyl)-1-(ethoxymethyl)-5-(trifluoromethyl)pyrrole-3-carbonitrile], 0%.

For orientation: inhibition means the share of the control response that was lost under treatment.
